Test results as given in patent US5151417A, “3-substituted vinyl cephalosporin derivatives” (Eisai Co., Ltd., priority 1989, dated 1992).
Values after ≈ are worked out from the molar mass of the structure shown. Like-named read-outs stand apart in the source and are kept apart here.

Experiments:
Assay type in all cases: cell-based
[1] = test system: Staphylococcus aureus 209PJCl; assay: In vitro antibacterial activity, Staphylococcus aureus 209PJCl (Table 1)
Description: (§1) Typical compounds out of the compounds described in Examples were classified into some groups. On each compound group, in vitro antibacterial activities were tested by a method known per se in the art.

[2] = test system: Escherichia coli MIHJ JC-2; assay: In vitro antibacterial activity, Escherichia coli MIHJ JC-2 (Table 1); settings: MIHJJC2
Description: as §1

[3] = test system: Klebsiella pneumoniae IID 875; assay: In vitro antibacterial activity, Klebsiella pneumoniae IID 875 (Table 1); settings: IID875
Description: as §1

[4] = test system: Serratia marcescens IID 620; assay: In vitro antibacterial activity, Serratia marcescens IID 620 (Table 1); settings: IID620
Description: as §1

[5] = test system: Morganella morganii IID 602; assay: In vitro antibacterial activity, Morganella morganii IID 602 (Table 1); settings: IID602
Description: as §1

[6] = test system: Staphylococcus aureus 209-P; assay: In vitro antibacterial activity, Staphylococcus aureus 209-P (Tables 2-6); settings: Staphylococcus aureus, 209P
Description: as §1

Escherichia coli NIHJ = assay: In vitro antibacterial activity, Escherichia coli NIHJ (Tables 2-6); settings: Escherichia coli
Description: as §1

[7] = test system: Klebsiella pneumoniae EK-6; assay: In vitro antibacterial activity, Klebsiella pneumoniae EK-6 (Tables 2-6); settings: Klebsiella pneumoniae
Description: as §1

[8] = test system: Serratia marcescens ES-75; assay: In vitro antibacterial activity, Serratia marcescens ES-75 (Tables 2-6); settings: Serratia marcescens
Description: as §1

[9] = test system: Morganella morganii EP-14; assay: In vitro antibacterial activity, Morganella morganii EP-14 (Tables 2-6); settings: Morganella morganii
Description: as §1

[10] = Staphylococcus aureus 209PJCl, read-out: MIC
[11] = Escherichia coli MIHJ JC-2, read-out: MIC
[12] = Klebsiella pneumoniae IID 875, read-out: MIC
[13] = Serratia marcescens IID 620, read-out: MIC
[14] = Morganella morganii IID 602, read-out: MIC
[15] = Staphylococcus aureus 209-P, read-out: MIC
[16] = Escherichia coli NIHJ, read-out: MIC
[17] = EK6, Klebsiella pneumoniae EK-6, read-out: MIC
[18] = ES75, Serratia marcescens ES-75, read-out: MIC
[19] = EP14, Morganella morganii EP-14, read-out: MIC

## NC(=O)OC/C=C\C1=C(C(=O)[O-])N2C(=O)C(NC(=O)/C(=N\O)c3csc(N)n3)[C@H]2SC1.[Na+] (stereo partly shown) [Example 1, Sodium 7-[(Z)-2-(2-aminothiazol-4-yl)-2-hydroxyiminoacetamido]-3-[(Z)-3-carbamoyloxy-1-propenyl]-3-cephem-4-carboxylate]
[1]; Staphylococcus aureus, 209PJCL
  MIC: 0.1 µg/mL
[2]; Escherichia coli
  MIC: 0.025 µg/mL
[3]; Klebsiella pneumoniae
  MIC: 0.012 µg/mL
[4]; Serratia marcescens
  MIC: 0.025 µg/mL
[5]; Morganella morganii
  MIC: 0.012 µg/mL

## CO/N=C(\C(=O)NC1C(=O)N2C(C(=O)[O-])=C(/C=C\COC(N)=O)CS[C@H]12)c1csc(N)n1.[Na+] (stereo partly shown) [Example 7, Sodium 7-[(Z)-2-(2-aminothiazol-4-Yl)-2-methoxyiminoacetamido]-3-[(Z)-3-carbamoyloxy-1-propenyl]-3-cephem-4-carboxylate]
[1]; Staphylococcus aureus, 209PJCL
  MIC: 0.8 µg/mL
[2]; Escherichia coli
  MIC: 0.2 µg/mL
[3]; Klebsiella pneumoniae
  MIC: 0.025 µg/mL
[4]; Serratia marcescens
  MIC: 0.025 µg/mL
[5]; Morganella morganii
  MIC: 0.025 µg/mL

## CNC(=O)OC/C=C\C1=C(C(=O)[O-])N2C(=O)C(NC(=O)/C(=N\O)c3csc(N)n3)[C@H]2SC1.[Na+] (stereo partly shown) [Example 9, Sodium 7-[(Z)-2-(2-aminothiazol-4-yl)-2-hydroxyiminoacetamido]-3-[(Z)-3-(N-methylcarbamoyloxy)-1-propenyl]-3-cephem-4-carboxylate]
[1]; Staphylococcus aureus, 209PJCL
  MIC: 0.1 µg/mL
[2]; Escherichia coli
  MIC: 0.05 µg/mL
[3]; Klebsiella pneumoniae
  MIC: 0.012 µg/mL
[4]; Serratia marcescens
  MIC: 0.8 µg/mL
[5]; Morganella morganii
  MIC: 0.1 µg/mL

## Nc1nc(/C(=N/O)C(=O)NC2C(=O)N3C(C(=O)O)=C(/C=C/Cn4cnnn4)CSC23)cs1 (stereo not shown) [Example 11, 7-[2-(2-Aminothiazole)-2-hydroxyiminoacetamido]-3-(3-1H-tetrazolyl-1-propenyl-1-yl)-3-cephem-4-carboxylate]
[1]; [10]
  MIC: 0.1 µg/mL (≈ 0.209 µM)
[2]; [11]
  MIC: 0.1 µg/mL (≈ 0.209 µM)
[3]; [12]
  MIC: 0.05 µg/mL (≈ 0.105 µM)
[4]; [13]
  MIC: 0.8 µg/mL (≈ 1.68 µM)
[5]; [14]
  MIC: 0.05 µg/mL (≈ 0.105 µM)

## Nc1nc(/C(=N/O)C(=O)NC2C(=O)N3C(C(=O)O)=C(/C=C/Cn4ncnn4)CSC23)cs1 (stereo not shown) [Example 12, 7-[2-(2-Aminothiazole)-2-hydroxyiminoacetamido]-3-(3-2H-tetrazolyl-1-propenyl-1-yl)-3-cephem-4-carboxylic Acid]
[1]; [10]
  MIC: 0.1 µg/mL (≈ 0.209 µM)
[2]; [11]
  MIC: 0.1 µg/mL (≈ 0.209 µM)
[3]; [12]
  MIC: 0.1 µg/mL (≈ 0.209 µM)
[4]; [13]
  MIC: 0.8 µg/mL (≈ 1.68 µM)
[5]; [14]
  MIC: 0.05 µg/mL (≈ 0.105 µM)

## NC(=O)OC/C=C/C1=C(C(=O)[O-])N2C(=O)C(NC(=O)/C(=N\O)c3csc(N)n3)[C@H]2SC1.[Na+] (stereo partly shown) [Example 13, Sodium 7-[(Z)-2-(2-aminothiazol-4-yl)-2-hydroxyiminoacetamido]-3-[(E)-3-carbamoyloxy-1-propenyl]-3-cephem-4-carboxylate]
[1]; Staphylococcus aureus, 209PJCL
  MIC: 0.1 µg/mL
[2]; Escherichia coli
  MIC: 0.1 µg/mL
[3]; Klebsiella pneumoniae
  MIC: 0.025 µg/mL
[4]; Serratia marcescens
  MIC: 0.1 µg/mL
[5]; Morganella morganii
  MIC: 0.05 µg/mL

## C=CCNC(=O)OC/C=C\C1=C(C(=O)O)N2C(=O)C(NC(=O)/C(=N\O)c3csc(N)n3)C2SC1 (stereo not shown) [Example 46, Sodium 7-[(Z)-2-(2-aminothiazol-4-yl)-2-hydroxyiminoacetamido]-3-[(Z)-30(N-allylcarbamoyloxy)-1-propenyl] -3-cephem-4-carboxylate]
[6]; [15]
  MIC: 0.2 µg/mL
Escherichia coli NIHJ; [16]
  MIC: 0.1 µg/mL
[7]; [17]
  MIC: 0.05 µg/mL
[8]; [18]
  MIC: 0.05 µg/mL
[9]; [19]
  MIC: 0.012 µg/mL

## CO/N=C(\C(=O)N[C@@H]1C(=O)N2C(C(=O)[O-])=C(/C=C\C3CCCO3)CS[C@H]12)c1csc(N)n1.[Na+] (stereo partly drawn) [Example 49, Sodium 7β-[(Z)-2-aminothiazol-4-yl-2-methoxyiminoacetamido]-3-[(Z)-2-(tetrahydrofuran-2-yl)vinyl]-3-cephem-4-carboxylate]
[6]
  MIC: 1.56 µg/mL
Escherichia coli NIHJ
  MIC: 0.8 µg/mL
[7]; EK6
  MIC: 0.4 µg/mL
[8]; ES75
  MIC: 0.05 µg/mL
[9]; EP14
  MIC: 0.1 µg/mL

## CO/N=C(\C(=O)N[C@@H]1C(=O)N2C(C(=O)[O-])=C(/C=C/C3CCC(=O)O3)CS[C@H]12)c1csc(N)n1.[Na+] (stereo partly drawn) [Example 52, Sodium 7β-[(Z)-2-aminothiazol-4-yl-2-methoxyiminoacetamido]-3-[(E)-2-(5-oxotetrahydrofuran 2-yl)vinyl]-3-cephem-4-carboxylate]
[6]
  MIC: 0.4 µg/mL
Escherichia coli NIHJ
  MIC: 0.1 µg/mL
[7]; EK6
  MIC: 0.025 µg/mL
[8]; ES75
  MIC: 0.012 µg/mL
[9]; EP14
  MIC: ≤ 0.006 µg/mL

## CO/N=C(\C(=O)N[C@@H]1C(=O)N2C(C(=O)OCOC(=O)C(C)(C)C)=C(/C=C/C3CCC(=O)O3)CS[C@H]12)c1csc(N)n1 (stereo partly drawn) [Example 53, Pivaloyloxymethyl 7β-[(Z)-2-aminothiazol-4-yl-2-methoxyiminoacetamido]-3-[(E)-2-(5 oxotetrahydrofuran-2-yl)vinyl]-3-cephem-4-carboxylate]
[6]; [15]
  MIC: 0.1 µg/mL (≈ 0.165 µM)
Escherichia coli NIHJ; [16]
  MIC: 0.025 µg/mL (≈ 0.0411 µM)
[7]; [17]
  MIC: 0.025 µg/mL (≈ 0.0411 µM)
[8]; [18]
  MIC: 0.05 µg/mL (≈ 0.0823 µM)
[9]; [19]
  MIC: 0.025 µg/mL (≈ 0.0411 µM)

## CC(C)(C)C(=O)OCOC(=O)C1=C(/C=C\C2CC2)CS[C@@H]2[C@H](NC(=O)/C(=N\O)c3csc(N)n3)C(=O)N12 [Example 58, Pivaloyloxymethyl 7-62-[(Z)-2-(2-aminothiazol-4-yl)-2-hydroxyiminoacetamido]-3-[(Z)-cyclopropylvinyl]-3-cephem-4-carboxylate]
[6]; [15]
  MIC: 0.1 µg/mL (≈ 0.182 µM)
Escherichia coli NIHJ; [16]
  MIC: 0.4 µg/mL (≈ 0.728 µM)
[7]; [17]
  MIC: 0.2 µg/mL (≈ 0.364 µM)
[8]; [18]
  MIC: 0.8 µg/mL (≈ 1.46 µM)
[9]; [19]
  MIC: 0.1 µg/mL (≈ 0.182 µM)
